According to patent US20240301435A1, “COMPOSITIONS AND METHODS FOR TRANSFORMATION OF MONOCOT SEED EXCISED EMBRYO EXPLANTS” (Monsanto Technology LLC, priority 2021, published 2024):
“And” between values parts separate entries of the source, which are not always exact repeats. Equal values may be shown once.

Experiments:
Type in all cases: cell-based, corn (Zea mays)
[1] = system: corn seed excised explants; assay: 2,4-D in co-culture and co-culture duration 4 vs 5 days on corn explant transformation (Tables 34, 35); conditions: for # Normal Plants / Normal Plant Frequency (%) / Shoot Frequency (%) / Total # Shoots: 2,4-D (5 mg/L) in co-culture +; for average normal plant frequency (%): 2,4-D present in co-culture (5 mg/L)
Experimental: In a separate experiment, co-culture durations of 4 days and 5 days were evaluated in combination with the presence or absence of 5 mg/L 2,4-D in the co-culture medium. Corn seed excised explants were surface sterilized, rehydrated and inoculated with an Agrobacterium suspension as described in the preceding experiment. The Agrobacterium contained a chloroplast-targeted CP4 EPSPS gene under the control of a constitutive promoter flanked by T-DNA borders on the Ti plasmid. The inoculated explants were transferred to co-culture plates with or without 5 mg/L 2,4-D and co-cultured for 4 or 5 days prior to bud induction, extended bud induction, and regeneration as described in the preceding experiment.
Furthermore, co-culture for 4 days produced a higher normal plant frequency compared to co-culture for 5 days.
The shoot frequency was calculated as the number of inoculated explants producing shoots divided by the total number of inoculated explants. The normal plant frequency was calculated as the number of normal plants divided by the total number of inoculated explants.
(§1) The normal plant frequency was calculated as the number of normal plants divided by the total number of inoculated explants.

[2] = system: corn seed excised explants; assay: 2,4-D in co-culture medium on corn explant transformation, 17 experiments (Table 32)
Experimental: Seventeen independent experiments were conducted to evaluate the effect of 2,4-D in the co-culture medium on corn explant transformation. Corn explants were surface sterilized, purified, rehydrated, inoculated with Agrobacterium, co-cultured, and subjected to bud induction, extended bud induction, and regeneration as described in Example 1, unless otherwise noted. Agrobacterium containing the same Ti plasmid as described in Example 9 was used for all experiments, except for experiments 13-17, in which two different bacterial origins of replication in the Ti-plasmid were evaluated in the presence or absence of 2,4-D in co-culture medium. In these cases, the Ti plasmids carried the same two expression cassettes flanked by T-DNA borders, one comprising the chloroplast-targeted CP4 EPSPS gene under the control of a constitutive promoter and the other comprising the uidA gene under the control of a similar constitutive promoter.
Table 32 provides a summary of results from treatments with and without 2,4-D in the co-culture medium from the 17 experiments. […] The increase in normal plant frequency ranged from 1.1 to 3.0-fold with an average increase of 1.8-fold.
as §1

corn explants = assay: Different cytokinins during bud induction on corn explant transformation (Table 30); conditions: for # Normal Shoot / Total # Shoot: 5,000 explants
Experimental: An experiment was conducted to evaluate the effect of using different cytokinins during bud induction on corn explant transformation. Corn explants were surface sterilized, purified, rehydrated, inoculated with Agrobacterium, co-cultured, and subjected to the bud induction (without the second extended bud induction step) and regeneration steps as described in Example 1, unless otherwise noted. Glyphosate was used as the selection agent.
In this experiment, bud induction using four cytokinins, 6-Benzylaminopurine (BAP), Zeatin, thidiazuron (TDZ) and 6-(γ,γ-dimethylallylamino)purine (2iP), was evaluated.
The shoot frequency was calculated as the number of inoculated explants producing shoots divided by the total number of inoculated explants. The normal shoot frequency was calculated as the number of normal shoots divided by the total number of inoculated explants.

[3] = system: corn seed excised explants; assay: Corn explant transformation: bud induction with different glyphosate concentrations, 28° C. vs 35° C. first week (Table 2)
Experimental: To evaluate the effect of elevated temperature during the initial bud induction step on transformation, two temperature treatments were evaluated using glyphosate for selection: 1) bud induction for two weeks at 28° C.; and 2) bud induction for one week at an elevated temperature of 35° C. followed by one week of bud induction at 28° C. The proceeding and subsequent steps for transformation of the corn explants in this experiment were generally performed as described in Example 1.
Following Agrobacterium inoculation and co-culture, corn explants were transferred to bud induction medium containing MS salts and B5 vitamins supplemented with 2 mg/L TDZ, 1 mg/L 2,4-D and different concentrations of glyphosate and cultured under the temperature conditions described above.
Total number shoots was calculated as the total number of shoots regenerated from inoculated explants, including both normal and chimeric shoots. The shoot frequency was calculated as the number of inoculated explants producing shoots divided by the total number of inoculated explants. […] The percentage normal shoots was calculated as the number of normal shoots divided by the total number of shoots. Normal shoot frequency was calculated as the number of normal shoots divided by the total number of inoculated explants.

[4] = cytokinin 2 mg/L in bud induction
[5] = glyphosate 12.5 μM, 1st week bud induction 28° C.
[6] = glyphosate 12.5 μM, 1st week bud induction 35° C.
[7] = glyphosate 25.0 μM, 1st week bud induction 28° C.
[8] = glyphosate 25.0 μM, 1st week bud induction 35° C.
[9] = glyphosate 37.5 μM, 1st week bud induction 28° C.
[10] = glyphosate 37.5 μM, 1st week bud induction 35° C.
[11] = glyphosate 50.0 μM, 1st week bud induction 28° C.
[12] = glyphosate 50.0 μM, 1st week bud induction 35° C.
[13] = cytokinin 10 mg/L in bud induction

Q: Which “# Normal Plants” value ([1]; co-culture duration 4 days) does the source give for O=C(O)COc1ccc(Cl)cc1Cl [2,4-D, 2,4-dichlorophenoxyacetic acid] here?
A: Its value is 19 and 10.

Q: What about the “Normal Plant Frequency (%)” value ([1]; co-culture duration 4 days) of the same compound?
A: The value was 0.8% and 0.9%.

Q: What about the “Shoot Frequency (%)” value ([1]; co-culture duration 4 days) of the same compound?
A: The value was 1.5% and 1.1%.

Q: And the “Total # Shoots” value ([1]; co-culture duration 4 days)?
A: Its value is 35 and 21.

Q: What about the “# Normal Plants” value ([1]; co-culture duration 5 days) of the same compound?
A: The value was 4.

Q: And the “Normal Plant Frequency (%)” value ([1]; co-culture duration 5 days)?
A: The value was 0.5%.

Q: What about the “Shoot Frequency (%)” value ([1]; co-culture duration 5 days) of the same compound?
A: Its value is 1.1%.

Q: What about the “Total # Shoots” value ([1]; co-culture duration 5 days) of the same compound?
A: The value was 9.

Q: What about the “average normal plant frequency (%)” value ([1]; duration 4 days) of the same compound?
A: The value was 0.85%.

Q: And the “average normal plant frequency (%)” value ([1]; duration 5 days)?
A: Its value is 0.5%.

Q: And the “average normal plant frequency” value ([1]; 2,4-D present in co-culture medium (5 mg/L), 4 and 5 days)?
A: The value was 0.73%.

Q: What about the “Normal Plant Frequency (%) With 2,4-D (5 mg/L)” value ([2]; 2,4-D 5 mg/L in co-culture medium, individual experiments 1-17, normal plants / inoculated explants) of the same compound?
A: The value was 1.10% and 1.24% and 1.48% and 0.20% and 0.60% and 2.40% and 1.70% (2×) and 4.20% and 1.50% and 0.40% (2×) and 0.70% and 0.80% and 1.40% and 1.00% and 1.56%.

Q: What about the “Normal Plant Frequency (%) With 2,4-D (5 mg/L), OVERALL” value ([2]; 2,4-D 5 mg/L in co-culture medium, overall of 17 experiments) of the same compound?
A: The value was 1.32%.

Q: And the “average increase in normal plant frequency on removal of 2,4-D from the co-culture medium” value ([2]; 17 experiments)?
A: Its value is 1.8 fold.

Q: What does the source list for C/C(=C\CNc1ncnc2[nH]cnc12)CO [Zeatin]?
A: Normal Shoot Frequency (%) (corn explants; [4]): 0.06%; Shoot Frequency (%) (corn explants; [4]): 0.20%; # Normal Shoot (corn explants; [4]): 3; Total # Shoot (corn explants; [4]): 10

Q: What does the source list for O=C(O)CNCP(=O)(O)O [Glyphosate, glyphosate]?
A: Normal Shoot Frequency (%) [3, 5]: 0.36%; Normal Shoots (%) [3, 5]: 10.23%; Shoot Frequency (%) [3, 5]: 3.52%; Total # Normal Shoots [3, 5]: 9; Total # Shoots [3, 5]: 88; Normal Shoot Frequency (%) [3, 6]: 1.12%; Normal Shoots (%) [3, 6]: 14.43%; Shoot Frequency (%) [3, 6]: 7.76%; Total # Normal Shoots [3, 6]: 28; Total # Shoots [3, 6]: 194; Normal Shoot Frequency (%) [3, 7]: 0.28%; Normal Shoots (%) [3, 7]: 31.82%; Shoot Frequency (%) [3, 7]: 0.88%; Total # Normal Shoots [3, 7]: 7; Total # Shoots [3, 7]: 22; Normal Shoot Frequency (%) [3, 8]: 1.84%; Normal Shoots (%) [3, 8]: 20.91%; Shoot Frequency (%) [3, 8]: 8.8%; Total # Normal Shoots [3, 8]: 46; Total # Shoots [3, 8]: 220; Normal Shoot Frequency (%) [3, 9]: 0.2%; Normal Shoots (%) [3, 9]: 83.33%; Shoot Frequency (%) [3, 9]: 0.24%; Total # Normal Shoots [3, 9]: 5; Total # Shoots [3, 9]: 6; Normal Shoot Frequency (%) [3, 10]: 1.36%; Normal Shoots (%) [3, 10]: 22.82%; Shoot Frequency (%) [3, 10]: 5.96%; Total # Normal Shoots [3, 10]: 34; Total # Shoots [3, 10]: 149; Normal Shoot Frequency (%) [3, 11]: 0.16%; Normal Shoots (%) [3, 11]: 66.67%; Shoot Frequency (%) [3, 11]: 0.24%; Total # Normal Shoots [3, 11]: 4; Total # Shoots [3, 11]: 6; Normal Shoot Frequency (%) [3, 12]: 1.8%; Normal Shoots (%) [3, 12]: 32.61%; Shoot Frequency (%) [3, 12]: 5.52%; Total # Normal Shoots [3, 12]: 45; Total # Shoots [3, 12]: 138

Q: How did the “Normal Shoot Frequency (%)” value (corn explants; [13]) turn out when CC(C)=CCNc1ncnc2nc[nH]c12 [2iP, 6-(γ,γ-dimethylallylamino)purine] was run?
A: Its value is 0.06%.

Q: And the “Shoot Frequency (%)” value (corn explants; [13])?
A: Its value is 0.14%.

Q: What about the “# Normal Shoot” value (corn explants; [13]) of the same compound?
A: Its value is 3.

Q: And the “Total # Shoot” value (corn explants; [13])?
A: The value was 7.

Q: How did the “Normal Shoot Frequency (%)” value (corn explants; [13]) turn out when c1ccc(CNc2ncnc3nc[nH]c23)cc1 [BAP, 6-Benzylaminopurine] was run?
A: Its value is 1.56%.

Q: And the “Shoot Frequency (%)” value (corn explants; [13])?
A: Its value is 5.80%.

Q: And the “# Normal Shoot” value (corn explants; [13])?
A: The value was 78.

Q: And the “Total # Shoot” value (corn explants; [13])?
A: The value was 290.

Q: What about the bud induction (corn explants; other studies, 1-8 mg/L BAP) of the same compound?
A: Its bud induction is “bud induction was also observed”.

Q: Which results are given for O=C(Nc1ccccc1)Nc1cnns1 [TDZ, thidiazuron]?
A: Normal Shoot Frequency (%) (corn explants; [4]): 1.70%; Shoot Frequency (%) (corn explants; [4]): 8.88%; # Normal Shoot (corn explants; [4]): 85; Total # Shoot (corn explants; [4]): 444
